Values of other authors in patent US20100203146A1, “INTERMITTENT DOSING STRATEGY FOR TREATING RHEUMATOID ARTHRITIS” (Callisto Pharmaceuticals, Inc., priority 2009, published 2010).

What was measured:
RA patients = settings: at the administered doses
arthritis patients = settings: after a single dosage of 90 mg
patients with RA = settings: often observed
[1] = after 14 or 28 days of daily oral dosing

SMILES | area under the concentration-time curve (AUC) [1] | maximum concentration (Cmax) [1] | half-life (in man) | dose-limiting toxicity (RA patients) | tolerability (RA patients; on drug for as long as one year) | patient-reported relief (arthritis patients) | response (improvement) (patients with RA)
CCCC1(CCC)CCC2(CCN(CCCN(CC)CC)C2)CC1 [Atiprimod, 2-(3-Diethylaminopropyl)-8,8-dipropyl-2-azaspiro[4,5]decane] | lower than expected | lower than expected | ~60 days | no observed dose-limiting toxicity | well-tolerated | feeling better | 
CN(Cc1cnc2nc(N)nc(N)c2n1)c1ccc(C(=O)N[C@@H](CCC(=O)O)C(=O)O)cc1 [Methotrexate] |  |  |  |  |  |  | less than 50%
